Converted amounts (≈) assume the structure as drawn.
Legend:
[1] = poultry; subject of a copending application; cited from earlier work
yeasts = assay: in vitro antimicrobial spectrum, summary; type: cell-based; conditions: summary of Table VI
Procedure: (§1) The in vitro antimicrobial spectrum of LL-D42067β was determined by the agar plate dilution method with Mueller-Hinton agar and an inoculum of each test organism of approximately 10^4 colony forming units delivered by the Steers replicating device. The minimal inhibitory concentration (MIC) in mcg/ml was defined as the lowest concentration of LL-D42067β that inhibited visible growth after 18 hours incubation at 35° C.

gram-positive bacteria = assay: in vitro antimicrobial spectrum, summary; type: cell-based; conditions: summary of Table VI
Procedure: as §1

Candida albicans = assay: in vitro antimicrobial spectrum, agar plate dilution (MIC); type: cell-based; conditions: strain CA 300, 18 hours, 35° C., Mueller-Hinton agar
Procedure: as §1

[2] = tested on: Acinetobacter calcoaceticus; assay: as above; type: cell-based; conditions: strain STFD 79-17, 18 hours, 35° C., Mueller-Hinton agar
Procedure: as §1

Streptococcus mutans = assay: as above; type: cell-based; conditions: 35° C., Mueller-Hinton agar
Procedure: as §1

Mycobacterium smegmatis = assay: as above; type: cell-based; conditions: Mycolicibacterium smegmatis, ATCC607; strain ATCC 607; 18 hours, 35° C., Mueller-Hinton agar
Procedure: as §1

Escherichia coli = assay: as above; type: cell-based; conditions: 35° C., Mueller-Hinton agar
Procedure: as §1

Saccharomyces cerevisiae = assay: as above; type: cell-based; conditions: strain Y 15, 18 hours, 35° C., Mueller-Hinton agar
Procedure: as §1

[3] = tested on: Staphylococcus epidermidis; assay: as above; type: cell-based; conditions: ATCC12228, strain ATCC 12228, 18 hours, 35° C., Mueller-Hinton agar
Procedure: as §1

Staphylococcus aureus = assay: as above; type: cell-based; conditions: Mueller-Hinton agar
Procedure: as §1

COc1c2c(c(O)c3c(=O)c4c(oc13)[C@@H](O)CC[C@@H]4O)-c1c3c(c4cc(C)[nH]c(=O)c4c1O)OCO[C@H]3C2 (relative stereo) [LL-D42067β]
anticoccidial effect (in words) [1]: effective
activity against yeasts (in words) (yeasts): moderately active
antibacterial activity (in words) (gram-positive bacteria): active
MIC (Candida albicans): 512 µg/mL (≈ 982 µM)
MIC [2]: 512 µg/mL (≈ 982 µM)
MIC (Streptococcus mutans; ATCC27352, strain ATCC 27352-1, 18 hours): 0.25 µg/mL (≈ 0.479 µM)
MIC (Streptococcus mutans; strain BHI (b), 18 hours): 0.25 µg/mL (≈ 0.479 µM)
MIC (Mycobacterium smegmatis): 512 µg/mL (≈ 982 µM)
MIC (Escherichia coli; ATCC25922, strain ATCC 25922, 18 hours): 512 µg/mL (≈ 982 µM)
MIC (Escherichia coli; strain No. 311, 18 hours): 512 µg/mL (≈ 982 µM)
MIC (Saccharomyces cerevisiae): 512 µg/mL (≈ 982 µM)
MIC [3]: 0.25 µg/mL (≈ 0.479 µM)
MIC (Staphylococcus aureus; 18 h, strain LL No. 45, 35° C.): 0.12 µg/mL (≈ 0.23 µM)
MIC (Staphylococcus aureus; ATCC25923, 18 h, strain ATCC 25923, 35° C.): 0.25 µg/mL (≈ 0.479 µM)
